Like-named read-outs stand apart in the source and are kept apart here.
Experiments:
[1] = In vivo iontophoretic delivery of salmon calcitonin across skin microporated with maltose microneedles, serum SCT by ELISA; design: species or system hairless rat; conditions: for increase in concentration compared to delivery with microneedles alone: p<0.05; for increase in concentration compared to delivery with microneedles alone / Cmax / total amount of SCT delivered: hairless rat; for Cmax: hairless, rat, serum, topical or ocular, 350 µg, read-out: maximum concentration of SCT in the serum; for total amount of SCT delivered: calculated by WinNonlin
Protocol: • Purpose: To determine the effect of iontophoresis and its combination with microneedles on the in vivo delivery of salmon calcitonin (SCT) as a model peptide. • Methods: Microneedles, iontophoresis and the combination were investigated for their effect on the transdermal delivery of SCT in vivo using the hairless rat. SCT (350 μl of a 1 mg/ml solution in 50 mM citrate buffer, pH 4.0) was placed in a cartridge designed for iontophoresis. Maltose microneedles (500 micron, Texmac Inc.), stacked in three layers, were used to porate the skin prior to the application of the drug with or without iontophoresis. […] Transport of drug across the skin was assessed by collecting blood samples at regular intervals via the tail vein which were analyzed for serum SCT using ELISA. • Results: The maximum concentrations of SCT in the serum were 41.45 pg/ml, 605.21 pg/ml, and 2374.06 pg/ml under microneedles alone, 1 hr iontophoresis alone, and the combination, respectively. When compared to the delivery with microneedles alone, the increase in concentration with iontophoresis alone was 15-fold (p<0.05) and with the combination of microneedles the increase was 57-fold (p<0.05). The total amount of SCT delivered by iontophoresis and its combination with microneedles in the hairless rat was 648.67 ng/kg and 3075.96 ng/kg, respectively, as calculated by WinNonlin. • Conclusion: Iontophoresis or a disruption of the skin barrier by microneedles enabled the transdermal delivery of SCT.

[2] = In vivo delivery of salmon calcitonin using iontophoresis in combination with microporation using titanium needle arrays; design: species or system hairless rat; conditions: titanium needle array microporation in combination with iontophoresis; 0.5 minutes after administration; FIG. 1C

- increase in concentration compared to delivery with microneedles alone ([1]; combination of iontophoresis and microneedles vs microneedles alone): 57 fold
- Cmax ([1]; pH 4, transdermal, 1 hr iontophoresis alone (0.2 mA/cm^2), 350 μl of 1 mg/ml SCT, pH 4.0): 0.605 ng/mL
- Cmax ([1]; pH 4, transdermal, maltose microneedles alone, 350 μl of 1 mg/ml SCT in 50 mM citrate buffer pH 4.0): 0.0415 ng/mL
- Cmax ([1]; transdermal, combination of maltose microneedles and 1 hr iontophoresis (0.2 mA/cm^2)): 2.37 ng/mL
- increase in concentration compared to delivery with microneedles alone ([1]; iontophoresis alone vs microneedles alone): 15 fold
- total amount of SCT delivered ([1]; iontophoresis alone): 648.67 ng/kg
- total amount of SCT delivered ([1]; iontophoresis in combination with microneedles): 3075.96 ng/kg
- increase in amount of protein that permeated the skin compared to iontophoresis alone ([1]; microneedle treatment combined with iontophoresis vs iontophoresis alone, hairless rat model): about four
- plasma concentration of SCT relative to microporation or iontophoresis alone [2]: about 10 fold
Structure (SMILES): CC(C)C[C@H](NC(=O)[C@H](CCCCN)NC(=O)CNC(=O)[C@H](CC(C)C)NC(=O)[C@@H](NC(=O)[C@@H]1CSSC[C@H](N)C(=O)N[C@@H](CO)C(=O)N[C@@H](CC(N)=O)C(=O)N[C@@H](CC(C)C)C(=O)N[C@@H](CO)C(=O)N[C@@H]([C@@H](C)O)C(=O)N1)C(C)C)C(=O)N[C@@H](CO)C(=O)N[C@@H](CCC(N)=O)C(=O)N[C@@H](CCC(=O)O)C(=O)N[C@@H](CC(C)C)C(=O)N[C@@H](Cc1c[nH]cn1)C(=O)N[C@@H](CCCCN)C(=O)N[C@@H](CC(C)C)C(=O)N[C@@H](CCC(N)=O)C(=O)N[C@H](C(=O)N[C@@H](Cc1ccc(O)cc1)C(=O)N1CCC[C@H]1C(=O)N[C@@H](CCCNC(=N)N)C(=O)N[C@H](C(=O)N[C@@H](CC(N)=O)C(=O)N[C@H](C(=O)NCC(=O)N[C@@H](CO)C(=O)NCC(=O)N[C@H](C(=O)N1CCC[C@H]1C(N)=O)[C@@H](C)O)[C@@H](C)O)[C@@H](C)O)[C@@H](C)O [SCT, salmon calcitonin]
